Reference: ChEMBL document CHEMBL5370655

Tests used:
[1] = Antitumor activity against human H1975-TM cells xenografted in BALB/c mouse assessed as tumor growth inhibition at 25 mg/kg, po measured after 25 days; format: functional; conditions: time 25 day
[2] = Toxicity in BALB/c mouse xenografted with human H1975-TM cells assessed as appearance of lesions in lung at 25 to 100 mg/kg, po measured after 25 days by hematoxylin-eosin staining based analysis; format: organism-based; conditions: in vivo, 600 h, dose 25-100 mg/kg, time 25 day
[3] = Induction of cell cycle arrest in human H1975-TM cells assessed as accumulation at G2/M phase at 250 nM measured after 24 hrs by RNase A/propidium iodide staining based flow cytometric analysis (reference value: 17.6 %); format: functional
[4] = Induction of apoptosis in human H1975-TM cells assessed as apoptotic cells at 250 nM measured after 24 by Annexin V-FITC and propidium iodide staining based flow cytometric analysis (reference value: 7.08 %); format: functional; conditions: time 24 hrs
[5] = molecular target: T1, Epidermal growth factor receptor (Homo sapiens, UniProt P00533, C797S/L858R/T790M)
T1 sequence (P00533 25-1210 T790M/C797S/L858R limits assumed): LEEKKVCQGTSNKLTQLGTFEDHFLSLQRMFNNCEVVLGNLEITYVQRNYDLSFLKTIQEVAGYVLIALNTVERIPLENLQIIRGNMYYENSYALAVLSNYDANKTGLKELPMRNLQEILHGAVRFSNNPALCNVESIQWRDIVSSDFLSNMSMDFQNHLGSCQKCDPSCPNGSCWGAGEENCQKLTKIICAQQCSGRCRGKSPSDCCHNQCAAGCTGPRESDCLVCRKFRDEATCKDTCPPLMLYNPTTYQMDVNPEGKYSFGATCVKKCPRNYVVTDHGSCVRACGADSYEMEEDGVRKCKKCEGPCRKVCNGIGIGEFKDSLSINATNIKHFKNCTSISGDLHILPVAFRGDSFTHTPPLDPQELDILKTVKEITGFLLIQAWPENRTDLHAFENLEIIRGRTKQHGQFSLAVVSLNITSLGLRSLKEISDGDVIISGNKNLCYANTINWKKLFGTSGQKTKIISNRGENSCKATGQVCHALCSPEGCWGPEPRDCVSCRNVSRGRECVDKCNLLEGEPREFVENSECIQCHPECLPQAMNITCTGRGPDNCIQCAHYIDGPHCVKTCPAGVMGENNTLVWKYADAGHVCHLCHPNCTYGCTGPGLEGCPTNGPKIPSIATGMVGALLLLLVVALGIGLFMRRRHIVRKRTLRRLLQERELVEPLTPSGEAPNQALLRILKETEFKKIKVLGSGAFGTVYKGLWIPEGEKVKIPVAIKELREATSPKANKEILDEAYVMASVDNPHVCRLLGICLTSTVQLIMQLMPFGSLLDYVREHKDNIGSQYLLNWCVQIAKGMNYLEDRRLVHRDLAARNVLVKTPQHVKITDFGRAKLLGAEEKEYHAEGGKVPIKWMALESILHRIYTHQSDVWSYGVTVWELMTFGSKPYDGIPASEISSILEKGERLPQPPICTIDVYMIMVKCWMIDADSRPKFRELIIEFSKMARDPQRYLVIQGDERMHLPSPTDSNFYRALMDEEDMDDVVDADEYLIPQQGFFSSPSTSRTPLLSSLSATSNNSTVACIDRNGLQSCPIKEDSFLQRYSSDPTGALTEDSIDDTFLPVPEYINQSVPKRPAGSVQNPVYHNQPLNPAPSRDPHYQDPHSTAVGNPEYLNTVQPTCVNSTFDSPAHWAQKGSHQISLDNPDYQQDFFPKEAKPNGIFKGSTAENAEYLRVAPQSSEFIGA

[6] = molecular target: T1, Epidermal growth factor receptor; remark: listed apart in the source
[7] = system: PC-9; assay: Antiproliferative activity against human PC-9 cells assessed as inhibition of cell growth measured after 72 hrs by CCK8 assay; format: functional, cell-based; conditions: PC-9, 72 h
[8] = Induction of cell cycle arrest in human H1975-TM cells assessed as accumulation at G0/G1 phase at 50 nM measured after 24 hrs by RNase A/propidium iodide staining based flow cytometric analysis (reference value: 64.3 %); format: functional
[9] = system: NCI-H1975; assay: Antiproliferative activity against human NCI-H1975 cells assessed as inhibition of cell growth measured after 72 hrs by CCK8 assay; format: functional, cell-based; conditions: NCI-H1975, 72 h
[10] = Induction of cell cycle arrest in human H1975-TM cells assessed as accumulation at S phase at 500 nM measured after 24 hrs by RNase A/propidium iodide staining based flow cytometric analysis (reference value: 18.1 %); format: functional
[11] = AUC (0 to infinity) in Sprague-Dawley rat at 50 mg/kg, po measured upto 24 hrs by HPLC-MS/MS analysis; format: ADME, organism-based; parameters: dose 50 mg/kg, time < 24 hrs, route po; conditions: in vivo
[12] = Tmax in Sprague-Dawley rat at 50 mg/kg, po measured upto 24 hrs by HPLC-MS/MS analysis; format: ADME, organism-based; conditions: in vivo
[13] = Cmax in Sprague-Dawley rat at 5 mg/kg, iv measured upto 24 hrs by HPLC-MS/MS analysis; format: ADME, organism-based; parameters: time < 24 hrs, dose 5 mg/kg, route iv; conditions: in vivo
[14] = Oral bioavailability in Sprague-Dawley rat at 50 mg/kg measured upto 24 hrs by HPLC-MS/MS analysis; format: ADME, organism-based; conditions: in vivo
[15] = Induction of cell cycle arrest in human H1975-TM cells assessed as accumulation at S phase at 250 nM measured after 24 hrs by RNase A/propidium iodide staining based flow cytometric analysis (reference value: 18.1 %); format: functional
[16] = AUC (0 to infinity) in Sprague-Dawley rat at 5 mg/kg, iv measured upto 24 hrs by HPLC-MS/MS analysis; format: ADME, organism-based; parameters: dose 5 mg/kg, time < 24 hrs, route iv; conditions: in vivo
[17] = Antitumor activity against human H1975-TM cells xenografted in BALB/c mouse assessed as tumor growth inhibition at 100 mg/kg, po measured after 25 days; format: functional; conditions: time 25 day
[18] = MRT (0 to infinity) in Sprague-Dawley rat at 50 mg/kg, po measured upto 24 hrs by HPLC-MS/MS analysis; format: ADME, organism-based; conditions: in vivo
[19] = Inhibition of colony formation in human H1975-TM cells at 250 nM incubated for 10 days by crystal violet staining based analysis; format: functional; conditions: time 10 day
[20] = system: H1975-TM; conditions: Homo sapiens, dose 10-500 nM, time 10.0 day
[21] = Toxicity in BALB/c mouse xenografted with human H1975-TM cells assessed as appearance of lesions in liver at 25 to 100 mg/kg, po measured after 25 days by hematoxylin-eosin staining based analysis; format: organism-based; conditions: in vivo, 600 h, dose 25-100 mg/kg, time 25 day
[22] = Induction of cell cycle arrest in human H1975-TM cells assessed as accumulation at G0/G1 phase at 500 nM measured after 24 hrs by RNase A/propidium iodide staining based flow cytometric analysis (reference value: 64.3 %); format: functional
[23] = Induction of apoptosis in human H1975-TM cells assessed as apoptotic cells at 500 nM measured after 24 by Annexin V-FITC and propidium iodide staining based flow cytometric analysis (reference value: 7.08 %); format: functional; conditions: time 24 hrs
[24] = Induction of apoptosis in human H1975-TM cells assessed as apoptotic cells at 50 nM measured after 24 by Annexin V-FITC and propidium iodide staining based flow cytometric analysis (reference value: 7.08 %); format: functional; conditions: time 24 hrs
[25] = Half life in Sprague-Dawley rat at 50 mg/kg, po measured upto 24 hrs by HPLC-MS/MS analysis; format: ADME, organism-based; conditions: in vivo
[26] = Induction of cell cycle arrest in human H1975-TM cells assessed as accumulation at G2/M phase at 50 nM measured after 24 hrs by RNase A/propidium iodide staining based flow cytometric analysis (reference value: 17.6 %); format: functional
[27] = Toxicity in BALB/c mouse xenografted with human H1975-TM cells assessed as appearance of lesions in heart at 25 to 100 mg/kg, po measured after 25 days by hematoxylin-eosin staining based analysis; format: organism-based; conditions: in vivo, 600 h, dose 25-100 mg/kg, time 25 day
[28] = Cmax in Sprague-Dawley rat at 50 mg/kg, po measured upto 24 hrs by HPLC-MS/MS analysis; format: ADME, organism-based; parameters: dose 50 mg/kg, time < 24 hrs, route po; conditions: in vivo
[29] = molecular target: Epidermal growth factor receptor (Homo sapiens, UniProt P00533, C797S/EX19DEL/T790M)
Chain of Epidermal growth factor receptor (Homo sapiens, UniProt P00533, C797S/EX19DEL/T790M) (P00533 whole entry, looked up, stated change not applied): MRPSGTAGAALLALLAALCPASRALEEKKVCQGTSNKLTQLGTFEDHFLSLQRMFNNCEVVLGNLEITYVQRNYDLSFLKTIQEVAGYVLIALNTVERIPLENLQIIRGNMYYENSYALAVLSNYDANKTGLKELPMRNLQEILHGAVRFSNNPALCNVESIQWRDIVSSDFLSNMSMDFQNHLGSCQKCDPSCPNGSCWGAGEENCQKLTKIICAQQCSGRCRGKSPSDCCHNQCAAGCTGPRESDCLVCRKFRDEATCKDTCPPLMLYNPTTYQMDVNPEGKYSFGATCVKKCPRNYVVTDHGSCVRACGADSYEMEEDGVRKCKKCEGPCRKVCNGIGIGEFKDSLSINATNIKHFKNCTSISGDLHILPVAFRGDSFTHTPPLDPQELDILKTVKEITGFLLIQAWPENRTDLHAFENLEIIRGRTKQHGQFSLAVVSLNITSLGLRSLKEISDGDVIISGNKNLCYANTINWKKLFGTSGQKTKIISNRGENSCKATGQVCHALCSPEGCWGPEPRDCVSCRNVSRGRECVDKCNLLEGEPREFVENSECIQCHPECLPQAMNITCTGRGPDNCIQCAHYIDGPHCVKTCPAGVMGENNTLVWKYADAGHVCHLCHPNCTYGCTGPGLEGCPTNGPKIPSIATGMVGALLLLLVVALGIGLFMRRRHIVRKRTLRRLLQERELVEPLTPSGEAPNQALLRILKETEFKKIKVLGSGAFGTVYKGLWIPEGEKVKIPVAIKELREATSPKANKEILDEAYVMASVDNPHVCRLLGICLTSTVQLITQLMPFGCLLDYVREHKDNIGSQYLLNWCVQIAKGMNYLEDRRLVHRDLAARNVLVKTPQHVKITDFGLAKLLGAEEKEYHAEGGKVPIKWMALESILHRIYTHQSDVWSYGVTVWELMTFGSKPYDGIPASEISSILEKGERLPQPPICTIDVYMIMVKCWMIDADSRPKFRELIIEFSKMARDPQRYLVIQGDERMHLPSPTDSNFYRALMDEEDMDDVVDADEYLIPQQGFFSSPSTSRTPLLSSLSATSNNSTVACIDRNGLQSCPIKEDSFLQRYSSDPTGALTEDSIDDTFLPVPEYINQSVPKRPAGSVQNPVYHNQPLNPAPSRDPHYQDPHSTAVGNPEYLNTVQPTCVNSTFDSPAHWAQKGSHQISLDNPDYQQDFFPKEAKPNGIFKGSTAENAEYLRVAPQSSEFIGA

[30] = Toxicity in BALB/c mouse xenografted with human H1975-TM cells assessed as change in body weight at 25 to 100 mg/kg, po measured after 25 days; format: organism-based; conditions: in vivo, 600 h, dose 25-100 mg/kg, time 25 day
[31] = Induction of cell cycle arrest in human H1975-TM cells assessed as accumulation at S phase at 50 nM measured after 24 hrs by RNase A/propidium iodide staining based flow cytometric analysis (reference value: 18.1 %); format: functional
[32] = molecular target: Epidermal growth factor receptor (Homo sapiens, UniProt P00533, L858R)
Chain of Epidermal growth factor receptor (Homo sapiens, UniProt P00533, L858R) (P00533 25-1210 L858R limits assumed): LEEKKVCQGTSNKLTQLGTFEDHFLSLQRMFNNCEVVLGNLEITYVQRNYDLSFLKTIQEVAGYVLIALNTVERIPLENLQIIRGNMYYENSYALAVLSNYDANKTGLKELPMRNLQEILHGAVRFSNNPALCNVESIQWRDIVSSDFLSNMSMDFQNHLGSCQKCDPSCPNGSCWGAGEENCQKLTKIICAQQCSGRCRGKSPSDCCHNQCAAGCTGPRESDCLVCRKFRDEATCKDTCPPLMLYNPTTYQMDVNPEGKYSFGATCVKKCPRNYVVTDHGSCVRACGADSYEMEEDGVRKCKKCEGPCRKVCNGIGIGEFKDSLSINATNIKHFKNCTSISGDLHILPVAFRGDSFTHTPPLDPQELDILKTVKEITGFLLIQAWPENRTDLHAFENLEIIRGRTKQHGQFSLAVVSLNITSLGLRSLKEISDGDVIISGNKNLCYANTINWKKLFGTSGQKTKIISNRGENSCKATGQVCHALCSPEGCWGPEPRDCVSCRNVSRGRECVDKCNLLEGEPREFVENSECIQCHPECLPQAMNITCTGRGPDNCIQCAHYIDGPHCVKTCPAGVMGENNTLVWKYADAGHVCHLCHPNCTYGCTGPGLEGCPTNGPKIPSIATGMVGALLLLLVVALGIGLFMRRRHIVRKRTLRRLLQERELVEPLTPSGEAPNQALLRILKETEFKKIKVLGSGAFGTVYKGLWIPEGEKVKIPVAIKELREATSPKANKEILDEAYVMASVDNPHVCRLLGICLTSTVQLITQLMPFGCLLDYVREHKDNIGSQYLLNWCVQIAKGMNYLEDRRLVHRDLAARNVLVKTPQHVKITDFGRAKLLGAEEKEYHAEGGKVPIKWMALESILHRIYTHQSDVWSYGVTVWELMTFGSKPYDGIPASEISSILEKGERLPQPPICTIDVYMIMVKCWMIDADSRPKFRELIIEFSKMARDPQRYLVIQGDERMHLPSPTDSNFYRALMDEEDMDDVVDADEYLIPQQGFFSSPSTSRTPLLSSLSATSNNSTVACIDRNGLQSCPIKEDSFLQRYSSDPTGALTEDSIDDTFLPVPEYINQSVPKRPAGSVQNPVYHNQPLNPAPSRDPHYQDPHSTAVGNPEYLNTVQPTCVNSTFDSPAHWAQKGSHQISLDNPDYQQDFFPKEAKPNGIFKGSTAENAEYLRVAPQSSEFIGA

[33] = Induction of cell cycle arrest in human H1975-TM cells assessed as accumulation at G2/M phase at 500 nM measured after 24 hrs by RNase A/propidium iodide staining based flow cytometric analysis (reference value: 17.6 %); format: functional
[34] = system: PC-9; format: functional, cell-based; conditions: Homo sapiens, PC-9, 72 h
[35] = MRT (0 to infinity) in Sprague-Dawley rat at 5 mg/kg, iv measured upto 24 hrs by HPLC-MS/MS analysis; format: ADME, organism-based; conditions: in vivo
[36] = Tmax in Sprague-Dawley rat at 5 mg/kg, iv measured upto 24 hrs by HPLC-MS/MS analysis; format: ADME, organism-based; conditions: in vivo

IC50 [5]: 261 nM
IC50 [6]: 5.1 nM
IC50 [7]: 5 nM
IC50 [9]: 210 nM
AUC(0-inf) [11]: 4780 ng·h/mL
Tmax [12]: 2 h
Cmax [13]: 761 ng/mL
bioavailability [14]: 30.7%
AUC(0-inf) [16]: 1560 ng·h/mL
MRT inf [18]: 5.43 h
half-life [25]: 8.49 h
Cmax [28]: 404 ng/mL
IC50 [29]: 33 nM
IC50 [32]: 3 nM
IC50 [34]: 30 nM
MRT inf [35]: 4.37 h
Tmax [36]: 4.8 min
SMILES: CCS(=O)(=O)N1CCC(c2nc(-c3ccc(F)cc3)c(-c3ccnc(Nc4ccc5c(ccn5CCN(C)C)c4)n3)s2)CC1
TGI [1]: 47.5%
Activity [2]: Non-Toxic
Activity [3]: 14%
Activity [4]: 19.88%
Activity [8]: 68.3%
Activity [10]: 10.3%
Activity [15]: 15.7%
TGI [17]: 62.9%
inhibition (INH) [19]: 100%
inhibition [20]: Dose-Dependent Effect
Activity [21]: Non-Toxic
Activity [22]: 76.3%
Activity [23]: 27.8%
Activity [24]: 19.07%
Activity [26]: 14.4%
Activity [27]: Non-Toxic
Activity [30]: Non-Toxic
Activity [31]: 17.3%
Activity [33]: 13.4%
